Key:
mouse [1] = details: Combined chronic toxicity/carcinogenicity, Oral, Feed, dose end: 2 year, group: systemic
mouse [2] = details: Carcinogenicity; other; Oral; Feed; dose end: 21 month; group: systemic; systemic / pathology microscopic / liver / hypertrophy
rat [3] = details: Prenatal developmental toxicity study; sprague dawley; Oral; Gavage/Intubation; dose end: 15 GD; group: developmental; developmental / developmental malformation / bone / absent
rabbit [4] = details: Prenatal developmental toxicity study, other, Oral, Gavage/Intubation, dose end: 18 GD
rat [5] = details: Prenatal developmental toxicity study, sprague dawley, Oral, Gavage/Intubation, dose end: 15 GD
rat [6] = details: Multigenerational reproductive toxicity study, other, Oral, Feed, dose end: 2 generation
rat [7] = details: Combined chronic toxicity/carcinogenicity, wistar, Oral, Feed, dose end: 2 year, group: systemic
rat [8] = details: Prenatal developmental toxicity study, sprague dawley, Oral, Gavage/Intubation, dose end: 15 GD; remark: listed apart in the source
dog [9] = details: Chronic toxicity, beagle, Oral, Feed, dose end: 24 month, group: systemic
rat [10] = details: Multigenerational reproductive toxicity study, sprague dawley, Inhalation, Whole-Body, dose end: 2 generation
rat [11] = details: Prenatal developmental toxicity study, sprague dawley, Inhalation, Whole-Body, dose end: 15 GD, group: maternal
rat [12] = details: Subchronic oral toxicity in rodents, sprague dawley, Water, dose end: 90 day, group: systemic
rat [13] = details: Multigenerational reproductive toxicity study, CRL:CD BR/VAF/PLUS, Oral, Feed, dose end: 2 generation
rabbit [14] = details: Prenatal developmental toxicity study, new zealand white, Oral, Gavage/Intubation, dose end: 18 GD
rat [15] = details: Subchronic oral toxicity in rodents, sprague dawley, Feed, dose end: 13 week
dog [16] = details: Subchronic oral toxicity in nonrodent, beagle, Capsule, dose end: 90 day, group: systemic, systemic / clinical chemistry / alkaline phosphatase (alp/alk) / alkaline phosphatase (alp/alk) + systemic / pathology microscopic / liver…
rat [17] = details: Combined chronic toxicity/carcinogenicity, sprague dawley, Oral, Feed, dose end: 2 year, group: systemic
rat [18] = details: Subchronic oral toxicity in rodents, other, Feed, dose end: 90 day, group: systemic, systemic / in life observation / food consumption / food consumption
mouse [19] = details: Carcinogenicity, cd1, Oral, Feed, dose end: 99 week, group: systemic
dog [20] = details: Chronic toxicity, beagle, Oral, Feed, dose end: 52 week, group: systemic
[21] = systemic / clinical chemistry / alanine aminotransferase (alt/sgpt) / alanine aminotransferase (alt/sgpt) + systemic / clinical chemistry / …
[22] = systemic / clinical chemistry / urea nitrogen / urea + systemic / clinical chemistry / creatinine / creatinine + systemic / organ weight / …
[23] = group: developmental, developmental / developmental malformation / bone / incomplete ossification + developmental / developmental malformation / bone / misshapen
[24] = group: developmental, developmental / developmental malformation / bone / incomplete ossification + developmental / developmental malformation / bone / misshapen…
[25] = group: maternal, systemic / in life observation / body weight / body weight gain
[26] = group: developmental, developmental / developmental malformation / bladder / distended + developmental / developmental malformation / bone / supernumerary
[27] = group: maternal, reproductive / reproductive performance / resorptions / resorptions + systemic / in life observation / body weight / body weight gain
[28] = group: offspring, developmental / offspring survival late / lactation index / lactation index + developmental / offspring survival late / viability index / …
[29] = group: parental, systemic / organ weight / ovary / relative to body weight + systemic / organ weight / ovary / absolute
[30] = group: reproductive, reproductive / reproductive performance / fertility / fertility
[31] = systemic / pathology microscopic / thyroid gland / adenoma + systemic / in life observation / body weight / body weight + systemic / organ …
[32] = group: developmental, developmental / developmental malformation / bone / [other] + developmental / developmental malformation / bone / full supernumerary + …
[33] = group: maternal, systemic / in life observation / clinical signs / motor activity
[34] = group: maternal, systemic / in life observation / clinical signs / motor activity + systemic / in life observation / body weight / body weight gain
[35] = group: offspring, systemic / in life observation / body weight / offspring (pup) weight
[36] = group: parental, systemic / organ weight / epididymis / absolute + systemic / organ weight / epididymis / relative to body weight + systemic / organ weight…
[37] = group: reproductive, reproductive / reproductive performance / fertility / fertility + reproductive / reproductive performance / pregnancy / pregnancy + …
[38] = systemic / in life observation / body weight / body weight gain + systemic / organ weight / spleen / absolute + systemic / organ weight / …
[39] = systemic / clinical chemistry / cholesterol / cholesterol + systemic / in life observation / mortality / mortality + systemic / pathology …
[40] = group: offspring, developmental / offspring survival late / lactation index / lactation index + developmental / offspring survival late / [other] / [other] + …
[41] = group: parental, systemic / in life observation / body weight / body weight gain + systemic / in life observation / food consumption / food consumption
[42] = group: parental, systemic / in life observation / body weight / body weight gain + systemic / in life observation / food consumption / food consumption + …
[43] = group: developmental, developmental / developmental malformation / bone / delayed ossification + developmental / developmental malformation / bone / full …
[44] = group: maternal, systemic / in life observation / body weight / body weight gain + reproductive / reproductive performance / aborted / aborted + reproductive…
[45] = group: maternal, reproductive / reproductive performance / estrous cycle / corpora lutea
[46] = group: systemic, systemic / in life observation / body weight / body weight + systemic / in life observation / food consumption / food consumption + systemic…
[47] = group: systemic, systemic / organ weight / liver / nos
[48] = systemic / pathology microscopic / adrenal gland / vacuolization + systemic / organ weight / thyroid gland / relative to body weight + …
[49] = systemic / pathology microscopic / testes / hypertrophy + systemic / pathology microscopic / testes / vacuolization + systemic / pathology …
[50] = systemic / hematology / heinz body / heinz body + systemic / organ weight / prostate / absolute
[51] = systemic / hematology / heinz body / heinz body + systemic / organ weight / prostate / absolute + systemic / clinical chemistry / alanine …

## CC(C)(C)C(=O)C(Oc1ccc(Cl)cc1)n1cncn1 (stereo not given) [Triadimefon]
Mouse [1]; [21]
  NOAEL: 40 mg/kg/day
Mouse [1]; systemic / clinical chemistry / alanine aminotransferase (alt/sgpt) / alanine aminotransferase (alt/sgpt) + systemic / in life observation…
  LOAEL: 240 mg/kg/day
Mouse [1]; [22]
  LEL: 6.67 mg/kg/day
  NEL: < 6.67 mg/kg/day
Mouse [2]
  LEL: 19.6 mg/kg/day
  LOAEL: 19.6 mg/kg/day
  NEL: < 19.6 mg/kg/day
  NOAEL: < 19.6 mg/kg/day
Rat [3]
  LEL: 10 mg/kg/day
  LOAEL: 10 mg/kg/day
  NEL: 5 mg/kg/day
  NOAEL: 5 mg/kg/day
Rabbit [4]; [23]
  LEL: 50 mg/kg/day
  LOAEL: 50 mg/kg/day
Rabbit [4]; [24]
  NEL: 20 mg/kg/day
  NOAEL: 20 mg/kg/day
Rabbit [4]; [25]
  LEL: 120 mg/kg/day
  LOAEL: 120 mg/kg/day
  NEL: 50 mg/kg/day
  NOAEL: 50 mg/kg/day
Rat [5]; [26]
  LEL: 90 mg/kg/day
  LOAEL: 90 mg/kg/day
  NEL: 30 mg/kg/day
  NOAEL: 30 mg/kg/day
Rat [5]; [27]
  LEL: 90 mg/kg/day
  LOAEL: 90 mg/kg/day
  NEL: 30 mg/kg/day
  NOAEL: 30 mg/kg/day
Rat [6]; [28]
  LEL: 90 mg/kg/day
  LOAEL: 90 mg/kg/day
  NEL: 2.5 mg/kg/day
  NOAEL: 2.5 mg/kg/day
Rat [6]; group: parental, systemic / organ weight / ovary / relative to body weight + systemic / in life observation / body weight / body weight + systemic / organ …
  NOAEL: 2.5 mg/kg/day
Rat [6]; group: parental, systemic / organ weight / ovary / relative to body weight + systemic / organ weight / epididymis / relative to body weight
  LOAEL: 90 mg/kg/day
Rat [6]; [29]
  LEL: 2.5 mg/kg/day
  NEL: < 2.5 mg/kg/day
Rat [6]; [30]
  LEL: 90 mg/kg/day
  LOAEL: 90 mg/kg/day
  NEL: 2.5 mg/kg/day
  NOAEL: 2.5 mg/kg/day
Rat [7]; systemic / hematology / leukocyte (wbc) count differential / leukocyte (wbc) + systemic / organ weight / liver / nos
  LEL: 22.5 mg/kg/day
Rat [7]; systemic / hematology / leukocyte (wbc) count differential / leukocyte (wbc) + systemic / organ weight / liver / nos + systemic / clinical …
  NEL: 3.6 mg/kg/day
Rat [7]; [31]
  LOAEL: 114 mg/kg/day
  NOAEL: 16.4 mg/kg/day
Rat [8]; group: developmental, developmental / developmental malformation / bone / [other]
  LOAEL: 100 mg/kg/day
Rat [8]; [32]
  NEL: 25 mg/kg/day
  NOAEL: 50 mg/kg/day
Rat [8]; group: developmental, developmental / developmental malformation / bone / full supernumerary
  LEL: 50 mg/kg/day
Rat [8]; [33]
  LEL: 25 mg/kg/day
  LOAEL: 25 mg/kg/day
Rat [8]; [34]
  NEL: 10 mg/kg/day
  NOAEL: 10 mg/kg/day
Dog [9]; [21]
  LOAEL: 47 mg/kg/day
  NOAEL: 11.4 mg/kg/day
Dog [9]; systemic / clinical chemistry / alkaline phosphatase (alp/alk) / alkaline phosphatase (alp/alk) + systemic / clinical chemistry / …
  NEL: 3.03 mg/kg/day
Dog [9]; systemic / pathology microscopic / testes / infiltration cellular / epididymides
  LEL: 11.4 mg/kg/day

## O=[N+]([O-])c1ccccc1 [Nitrobenzene]
Rat [10]; [35]
  LEL: 40 ppm
  LOAEL: > 40 ppm
  NEL: 10 ppm
  NOAEL: ≥ 40 ppm
Rat [10]; [36]
  LEL: 40 ppm
  LOAEL: > 40 ppm
  NEL: 10 ppm
  NOAEL: ≥ 40 ppm
Rat [10]; group: reproductive, reproductive / reproductive performance / fertility / fertility + reproductive / reproductive performance / pregnancy / pregnancy
  NEL: 10 ppm
Rat [10]; [37]
  LEL: 40 ppm
  LOAEL: > 40 ppm
  NOAEL: ≥ 40 ppm
Rat [11]; [38]
  LOAEL: > 40 ppm
  NEL: 1 ppm
  NOAEL: ≥ 40 ppm
Rat [11]; systemic / organ weight / spleen / absolute + systemic / organ weight / spleen / relative to body weight
  LEL: 10 ppm

## CC(Cl)C(Cl)Cl (stereo not given) [1,1,2-Trichloropropane]
Rat [12]; [39]
  LOAEL: > 50 mg/kg/day
  NEL: 0.5 mg/kg/day
  NOAEL: ≥ 50 mg/kg/day
Rat [12]; systemic / in life observation / mortality / mortality
  LEL: 5 mg/kg/day

## CC(C)NC(=O)N1CC(=O)N(c2cc(Cl)cc(Cl)c2)C1=O [Iprodione]
Rat [13]; [40]
  LEL: 158 mg/kg/day
  LOAEL: 158 mg/kg/day
  NEL: 54.7 mg/kg/day
  NOAEL: 54.7 mg/kg/day
Rat [13]; [41]
  LEL: 54.7 mg/kg/day
  LOAEL: 54.7 mg/kg/day
Rat [13]; [42]
  NEL: 16.5 mg/kg/day
  NOAEL: 16.5 mg/kg/day
Rabbit [14]; [43]
  LEL: 200 mg/kg/day
  LOAEL: 200 mg/kg/day
  NEL: 60 mg/kg/day
  NOAEL: 60 mg/kg/day
Rabbit [14]; [25]
  LEL: 60 mg/kg/day
  LOAEL: 60 mg/kg/day
Rabbit [14]; [44]
  NEL: 20 mg/kg/day
  NOAEL: 20 mg/kg/day
Rat [15]; [45]
  LEL: 184 mg/kg/day
  LOAEL: 184 mg/kg/day
  NEL: 89 mg/kg/day
  NOAEL: 89 mg/kg/day
Rat [15]; [46]
  LOAEL: 151 mg/kg/day
  NOAEL: 78 mg/kg/day
Rat [15]; [47]
  LEL: 89 mg/kg/day
  NEL: < 89 mg/kg/day
Dog [16]
  LEL: 180 mg/kg/day
  LOAEL: 180 mg/kg/day
  NEL: 60 mg/kg/day
  NOAEL: 60 mg/kg/day
Rat [17]; [48]
  LEL: 6.1 mg/kg/day
  NEL: < 6.1 mg/kg/day
Rat [17]; systemic / pathology microscopic / liver / hypertrophy + systemic / organ weight / liver / absolute + systemic / organ weight / liver / …
  LOAEL: 12.4 mg/kg/day
Rat [17]; systemic / pathology microscopic / liver / hypertrophy + systemic / pathology microscopic / adrenal gland / rarefaction + systemic / …
  NOAEL: 6.1 mg/kg/day
Rat [18]
  LEL: 25 mg/kg/day
  LOAEL: > 50 mg/kg/day
  NEL: 7.5 mg/kg/day
  NOAEL: ≥ 50 mg/kg/day
Mouse [19]; systemic / pathology microscopic / testes / hypertrophy + systemic / pathology microscopic / testes / vacuolization
  LOAEL: 115 mg/kg/day
Mouse [19]; [49]
  LEL: 115 mg/kg/day
  NEL: 23 mg/kg/day
  NOAEL: 23 mg/kg/day
Dog [20]; [50]
  LEL: 24.9 mg/kg/day
  LOAEL: 24.9 mg/kg/day
Dog [20]; [51]
  NEL: 4.12 mg/kg/day
  NOAEL: 4.12 mg/kg/day

From EPA's ToxRefDB 2
